This is an account of results in patent US8921373B2, “Compounds having TRPV1 antagonistic activity and uses thereof” (Shionogi & Co., Ltd., priority 2010, dated 2014).

Assay [1] deals with FCA-induced inflammation of the rat hind paw. Description: Freund's complete adjuvant (FCA) model of inflammatory pain, reversal of hyperalgesia. Type of assay: in vivo. The settings on record: rats. The procedure: Test Animals: Each experiment uses rats weighing between 200-260 g at the start of the experiment. The rats are group-housed and have free access to food and water at all times, except prior to oral administration of a compound of Formula I when food is removed for 16 hours before dosing. A control group acts as a comparison to rats treated with a compound of Formula I. The control group is administered the carrier for the compound of Formula I. The volume of carrier administered to the control group is the same as the volume of carrier and compound of Formula I administered to the test group.
Inflammatory Pain: To assess the actions of the compounds of Formula I on the treatment or prevention of inflammatory pain the Freund's complete adjuvant (“FCA”) model of inflammatory pain is used. […] 24 hour post injection, the animal is assessed for response to noxious mechanical stimuli by determining the PWT, or to noxious thermal stimuli by determining the PWL, as described below. […] Responses to noxious mechanical or thermal stimuli are then determined 1, 3, 5 and 24 hours post administration. […]
Response to Mechanical Stimuli as an Assessment of Mechanical Hyperalgesia: The paw pressure assay can be used to assess mechanical hyperalgesia. For this assay, hind paw withdrawal thresholds (PWT) to a noxious mechanical stimulus are determined using an analgesymeter (Model 7200, commercially available from Ugo Basile of Italy) as described in C. […] PWT is determined once for each rat at each time point and only the affected (ipsilateral) paw is tested.
Response to Thermal Stimuli as an Assessment of Thermal Hyperalgesia: The plantar test can be used to assess thermal hyperalgesia. For this test, hind paw withdrawal latencies (PWL) to a noxious thermal stimulus are determined using a plantar test apparatus (commercially available from Ugo Basile of Italy) following the technique described by K. Hargreaves et al., “A New and Sensitive Method for Measuring Thermal Nociception in Cutaneous Hyperalgesia,” Pain 32(1):77-88 (1988). […] Three latencies are determined at each time point and averaged. […]

Assay [2] deals with human recombinant TRPV1 (Homo sapiens (Human), UniProt Q8NER1). Description: TRPV1 pH-Based Assay (Protocol 2, Ca2+ response in TRPV1/CHO cells, Fura-2). The settings on record: TRPV1/CHO cells, pH 5.0-5.1; read-out: IC50 value by the pH-Based Assay. In kind it is cell-based. An outline of the steps:
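CHO cells stably expressing human TRPV1, Fura-2 loaded, given compound (1% DMSO in 10× stock) before acid challenge to final pH 5.0-5.1 (3.2 or 3.3 mM H2SO4). 340/380 nm ratio recorded at 0.5 Hz; maximal ratio after agonist addition versus 16-point baseline used as response.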

Chain of human recombinant TRPV1 (Q8NER1 whole entry): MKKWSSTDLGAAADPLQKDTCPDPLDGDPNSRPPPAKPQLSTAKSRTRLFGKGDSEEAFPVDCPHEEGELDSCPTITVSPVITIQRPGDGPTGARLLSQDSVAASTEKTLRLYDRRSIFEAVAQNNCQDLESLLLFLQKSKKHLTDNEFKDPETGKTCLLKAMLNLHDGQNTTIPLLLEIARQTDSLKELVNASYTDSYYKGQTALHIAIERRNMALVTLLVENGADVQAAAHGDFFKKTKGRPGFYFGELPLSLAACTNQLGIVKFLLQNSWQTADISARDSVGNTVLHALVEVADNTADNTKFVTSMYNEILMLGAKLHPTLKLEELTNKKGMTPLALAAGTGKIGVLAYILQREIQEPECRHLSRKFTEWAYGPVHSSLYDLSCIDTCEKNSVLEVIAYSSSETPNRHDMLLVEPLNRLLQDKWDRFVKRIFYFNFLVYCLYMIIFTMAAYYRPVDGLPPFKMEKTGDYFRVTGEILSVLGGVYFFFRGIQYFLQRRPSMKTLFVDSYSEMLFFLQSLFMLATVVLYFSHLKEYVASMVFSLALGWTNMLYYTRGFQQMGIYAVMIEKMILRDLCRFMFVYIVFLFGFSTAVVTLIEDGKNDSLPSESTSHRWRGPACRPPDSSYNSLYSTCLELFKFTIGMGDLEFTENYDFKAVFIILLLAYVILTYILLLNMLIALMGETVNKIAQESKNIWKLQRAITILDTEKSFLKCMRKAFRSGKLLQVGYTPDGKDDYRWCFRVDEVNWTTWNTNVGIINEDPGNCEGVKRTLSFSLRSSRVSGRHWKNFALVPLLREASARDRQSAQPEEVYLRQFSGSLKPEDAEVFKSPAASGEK

Turning to `Cc1cc(NC(=O)N2CCC(F)(c3ncc(C[C@H](O)CO)cc3F)CC2)ccc1C(F)(F)F` [ACQ, (S)-4-(5-(2,3-dihydroxypropyl)-3-fluoropyridin-2-yl)-4-fluoro-N-(3-methyl-4-(trifluoromethyl)phenyl)piperidine-1-carboxamide], in assay [1], the “Percentage reversal of hyperalgesia, % Reversal (3 mg/Kg, 3 hours post administration)” value is 41.7%. The IC50 in assay [2] is no more than 50 nM.
